Measured values from PubChem BioAssay AID256 (DTP/NCI, 2004).
“And” between values parts separate entries of the source, which are not always exact repeats. Equal entries are not always repeated. Inconclusive results and toxic doses are left out. How the source made its calls: active means survival T/C of 150% or more; inactive means T/C below 125% in these data.

System: CD2F1 mice, L1210 leukemia ip, survival T/C
Test: NCI In Vivo Anticancer Drug Screen. Data for tumor model L1210 Leukemia (intraperitoneal) in CD2F1 (CDF1) mice
Conditions: endpoint: mean survival time, higher = longer survival
In short: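 Activity against a transplanted murine tumor was judged by comparing the compound group with a vehicle group. The outcome in the treated animals was divided by that in the controls.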

[1] = dose: 100.0 mg/kg/injection, schedule: Q01DX009 (ip), vehicle: saline with Tween-80
[2] = dose: 100.0 mg/kg/injection, schedule: Q04DX003 (ip), vehicle: saline with Tween-80
[3] = dose: 200.0 mg/kg/injection, schedule: Q01DX009 (ip), vehicle: saline with Tween-80
[4] = dose: 200.0 mg/kg/injection, schedule: Q04DX003 (ip), vehicle: saline with Tween-80
[5] = dose: 400.0 mg/kg/injection, schedule: Q01DX009 (ip), vehicle: saline with Tween-80
[6] = dose: 400.0 mg/kg/injection, schedule: Q04DX003 (ip), vehicle: saline with Tween-80
[7] = dose: 100.0 mg/kg/injection, schedule: Q01DX001 (ip), vehicle: Klucel (hydroxypropylcellulose) (HPC)

Measured: T/C

O=C(SC1=NCCN1)c1ccccc1
inactive: dose: 100.0 mg/kg/injection, schedule: Q01DX001 (ip), vehicle: saline 94 % of control | dose: 200.0 mg/kg/injection, schedule: Q01DX001 (ip), vehicle: saline 102 % of control

CCc1ccc(NC(=O)c2cccc(Cl)c2)cc1
inactive: [1] 93 % of control | [2] 95 % of control | [3] 109 % of control | [4] 98 % of control | [5] 98 % of control | [6] 98 % of control

C=C1CN(C(=O)NCCCl)C1
inactive: dose: 100.0 mg/kg/injection, schedule: Q01DX001 (ip), vehicle: saline with Tween-80 100 % of control | dose: 200.0 mg/kg/injection, schedule: Q01DX001 (ip), vehicle: saline with Tween-80 100 % of control | dose: 400.0 mg/kg/injection, schedule: Q01DX001 (ip), vehicle: saline with Tween-80 97 % of control

CCc1ccccc1NC(=O)c1cccc(Cl)c1
inactive: [1] 98 % of control | [2] 94 % of control | [3] 91 % of control | [4] 96 % of control | [5] 96 % of control | [6] 96 % of control

CCOC(=O)N(CCCl)C(=O)C(C)C
inactive: dose: 100.0 mg/kg/injection, schedule: Q04DX003 (ip), vehicle: saline 95 % of control | dose: 200.0 mg/kg/injection, schedule: Q04DX003 (ip), vehicle: saline 92 % of control | dose: 400.0 mg/kg/injection, schedule: Q04DX003 (ip), vehicle: saline 97 % of control

COc1ccc(-c2cc(=O)c3ccc(O)cc3o2)cc1
inactive: dose: 75.0 mg/kg/injection, schedule: Q01DX001 (ip), vehicle: saline 104 % of control | dose: 150.0 mg/kg/injection, schedule: Q01DX001 (ip), vehicle: saline 90 % of control | dose: 300.0 mg/kg/injection, schedule: Q01DX001 (ip), vehicle: saline 104 % of control

O=CNc1cccc(Cl)c1
inactive: [1] 96 % of control | [2] 100 % of control | [3] 95 % of control | [4] 90 % of control | [5] 96 % of control | [6] 90 % of control

Cc1ccccc1OS(=O)(=O)c1cccc([N+](=O)[O-])c1
inactive: [2] 103 % of control | [4] 100 % of control | [6] 100 % of control

O=c1[nH]nc(-c2cccc3ccccc23)c2ccccc12
inactive: [2] 97 % of control | [4] 94 % of control | [6] 97 % of control

N=c1nc2c3ccccc3nnn2c2ccccc12
inactive: dose: 50.0 mg/kg/injection, schedule: Q01DX001 (ip), vehicle: Klucel (hydroxypropylcellulose) (HPC) 101 % of control | [7] 112 % of control

Cc1ccc(C2=C(O)C(=O)C(c3ccc(C)cc3)=C(O)C2=O)cc1
inactive: dose: 75.0 mg/kg/injection, schedule: Q01DX001 (ip), vehicle: other 105 % of control | dose: 150.0 mg/kg/injection, schedule: Q01DX001 (ip), vehicle: other 102 % of control

C=C(c1ccccc1)C(C)C(=O)OCC (stereo unspecified)
inactive: [2] 103 % of control | [4] 103 % of control | [6] 100 % of control

CCOC(=O)C1=C(C)NC(C)=C(C(=O)OCC)C1c1cccc([N+](=O)[O-])c1
inactive: dose: 100.0 mg/kg/injection, schedule: Q01DX009 (ip), vehicle: Klucel (hydroxypropylcellulose) (HPC) 105 % of control | dose: 200.0 mg/kg/injection, schedule: Q01DX009 (ip), vehicle: Klucel (hydroxypropylcellulose) (HPC) 91 % of control

CCOC(=O)C1(C(=O)OCC)C(C)CC(O)N1C(=O)c1cc2c(cc1[N+](=O)[O-])OCO2 (stereo unspecified)
inactive: [7] 100 % of control | dose: 200.0 mg/kg/injection, schedule: Q01DX001 (ip), vehicle: Klucel (hydroxypropylcellulose) (HPC) 100 % of control | dose: 400.0 mg/kg/injection, schedule: Q01DX001 (ip), vehicle: Klucel (hydroxypropylcellulose) (HPC) 104 % of control

C1=CC2C3=CC1C=CC32 (stereo unspecified)
inactive: dose: 100.0 mg/kg/injection, schedule: Q01DX009 (ip), vehicle: acetone 92 % of control | dose: 200.0 mg/kg/injection, schedule: Q01DX009 (ip), vehicle: acetone 95 % of control

[Cl][Pt][Cl].[NH-]CC[NH-].[NH-]CC[NH-]
inactive: dose: 12.5 mg/kg/injection, schedule: Q04DX003 (ip), vehicle: water 92 % of control and 100 % of control and 95 % of control | dose: 25.0 mg/kg/injection, schedule: Q04DX003 (ip), vehicle: water 88 % of control and 89 % of control and 100 % of control | dose: 50.0 mg/kg/injection, schedule: Q04DX003 (ip), vehicle: water 95 % of control and 97 % of control | dose: 100.0 mg/kg/injection, schedule: Q04DX003 (ip), vehicle: water 90 % of control and 91 % of control and 95 % of control | dose: 200.0 mg/kg/injection, schedule: Q04DX003 (ip), vehicle: water 95 % of control and 93 % of control

O=C(CC(=O)c1ccccc1)c1ccccc1.O=C(CC(=O)c1ccccc1)c1ccccc1.[Pd]
inactive: dose: 3.13 mg/kg/injection, schedule: Q04DX003 (ip), vehicle: distilled water + Tween-80 96 % of control | dose: 6.25 mg/kg/injection, schedule: Q04DX003 (ip), vehicle: distilled water + Tween-80 98 % of control | dose: 12.5 mg/kg/injection, schedule: Q04DX003 (ip), vehicle: distilled water + Tween-80 94 % of control | dose: 25.0 mg/kg/injection, schedule: Q04DX003 (ip), vehicle: distilled water + Tween-80 98 % of control | dose: 50.0 mg/kg/injection, schedule: Q04DX003 (ip), vehicle: distilled water + Tween-80 93 % of control | dose: 100.0 mg/kg/injection, schedule: Q04DX003 (ip), vehicle: distilled water + Tween-80 89 % of control | dose: 200.0 mg/kg/injection, schedule: Q04DX003 (ip), vehicle: distilled water + Tween-80 107 % of control

C=CC1CC=CCC1 (stereo unspecified)
inactive: [1] 103 % of control | [3] 106 % of control

O=[N+]([O-])c1cccn2nc(C3OC(CO)C(O)C3O)nc12 (stereo unspecified)
inactive: dose: 12.5 mg/kg/injection, schedule: Q01DX005 (ip), vehicle: water 96 % of control | dose: 25.0 mg/kg/injection, schedule: Q01DX005 (ip), vehicle: water 97 % of control | dose: 50.0 mg/kg/injection, schedule: Q01DX005 (ip), vehicle: water 94 % of control | dose: 100.0 mg/kg/injection, schedule: Q01DX005 (ip), vehicle: water 100 % of control

COc1cccc2c1C(=O)c1c(O)c3c(c(O)c1C2=O)C[C@@](O)(/C(C)=N\NC(=O)CO)C[C@@H]3OC1CC(N)C(O)C(C)O1 (stereo partly specified)
inactive: dose: 0.25 mg/kg/injection, schedule: Q01DX009 (ip), vehicle: water 103 % of control | dose: 0.5 mg/kg/injection, schedule: Q01DX009 (ip), vehicle: water 101 % of control | dose: 0.78 mg/kg/injection, schedule: Q01DX009 (ip), vehicle: water 107 % of control | dose: 1.0 mg/kg/injection, schedule: Q01DX009 (ip), vehicle: water 98 % of control | dose: 1.0 mg/kg/injection, schedule: Q04DX003 (ip), vehicle: saline with Tween-80 115 % of control | dose: 1.56 mg/kg/injection, schedule: Q01DX009 (ip), vehicle: water 107 % of control | dose: 2.0 mg/kg/injection, schedule: Q01DX009 (ip), vehicle: water 106 % of control | dose: 2.0 mg/kg/injection, schedule: Q04DX003 (ip), vehicle: saline with Tween-80 113 % of control | dose: 3.13 mg/kg/injection, schedule: Q01DX009 (ip), vehicle: water 119 % of control | dose: 4.0 mg/kg/injection, schedule: Q01DX009 (ip), vehicle: water 111 % of control | dose: 4.0 mg/kg/injection, schedule: Q04DX003 (ip), vehicle: saline with Tween-80 117 % of control | dose: 8.33 mg/kg/injection, schedule: Q04DX003 (ip), vehicle: saline 121 % of control | dose: 12.5 mg/kg/injection, schedule: Q01DX009 (ip), vehicle: saline 101 % of control | dose: 12.5 mg/kg/injection, schedule: Q01DX009 (ip), vehicle: water 115 % of control
